Measured values reported in patent US8840849B2, “Permeation device and method for reducing aqueous boundary layer thicknesses” (Pion, Inc., priority 2004, dated 2014).
Where a name gives a salt, the structure may show the parent alone.

Assays:
[1] = in vitro
Source text: Additionally, those molecular entities that are footnoted as “2” had permeability measurements obtained in an aqueous buffer and a buffer having 20 percent acetonitrile added thereto. For this example, a PAMPA Evolution instrument from pION INC of Woburn, Mass.
Solution pH was adjusted using a universal buffer as well as a buffer solution having a pH of 7.4 and containing a chemical scavenger to simulate serum proteins, which can be obtained from pION INC of Woburn, Mass. […] Donor and acceptor microtitre plates with 96 compartments were also employed for this example. The acceptor plate was obtained from Millipore Corporation of Billerica, Mass.
This approach for determining Pe is often referred to as the pKa^FLUX method.
As indicated above, the acceptor solutions contained a surfactant in order to mimic some of the function of serum proteins.
When not being stirred, a PAMPA sandwich was formed and permitted to incubate in the GUT-BOX at about 23° C. for up to several hours in an atmosphere saturated in humidity and scrubbed free of oxygen and carbon dioxide. Preferably, incubation was performed for up to about four hours. […] For example, the stirring members in FIG. 10 can be magnetized flippers that are controlled by a magnetic stirrer in the GUT-BOX, which causes the members to rotate about a horizontal axis. A speed dial for the magnetic stirrer, as described above, can be calibrated in units of thickness of the expected boundary layer rather than as standard units such as rpm.
After a permeation time in the GUT-BOX was reached, the PAMPA sandwich could then be separated and the donor and acceptor compartments studied for the amount of entity present. The amount of entity present was determined from UV measurements compared to UV spectra obtained from reference standards. The reference UV spectra were performed in a range from about 230 to 500 nanometers (nm). Moreover, mass balance was used to determine the amount of material retained by the porous support and DOUBLE-SINK GIT-0 lipid as generally described by Avdeef et al., Eur. J. Pharm.
The determination of Pe also accounted for the porous support area and its porosity. In particular, the support area of 0.3 centimeters squared (cm^2) was multiplied by the apparent porosity (εa) of the support, which was about 0.76, such as generally described by Nielsen et al., Eur. J. Pharm.
The majority of the data in Tables 1 through 5 is from unstirred assays and those stirred at about 186 rpm. […] The maximum speed used for these entities was 622 rpm.
Again, several entities were studied in a buffer comprising about 20 percent acetonitrile. These entities are footnoted as “1” in Tables 1 through 5. […] Tables 1 through 5 are provided below with Table 1 at 0 rpm, Table 2 stirred at 49 rpm, Table 3 stirred at 118 rpm, Table 4 stirred at 186 rpm and Table 5 stirred at 622 rpm. Tables 1 through 5 also include the standard deviation (SD) of determined Pu values.
The boundary layer thickness (h) in Tables 1 through 5 can be determined by […] of diffusion, which is
Pu values derived at various stirring speeds by using the pKa^FLUX method, as described above, were also subjected to a hydrodynamic analysis using the equation Pu=Kν^α in a logarithmic form. For example, FIG. 13 provides a plot of the logarithm of Pu versus the logarithm of ν comprising 36 measurements based on 14 molecular entities studied at several different stirring speeds. The intercept in such a plot is the logarithm of the stirring efficiency factor (K) with the slope being the hydrodynamic factor (α).

[2] = testosterone at 37° C., Karlsson et al.; dotted curve FIG. 15; cited from earlier work
[3] = tested on: Caco-2 type cells; conditions: testosterone data at 22° C., Adson et al.; dashed line FIG. 15; cited from earlier work
[4] = PAMPA, Pu (boundary layer permeability)
[5] = PAMPA, Pu (boundary layer permeability), 0 rpm (unstirred), aqueous buffer, pKa^FLUX method
[6] = 0 rpm (unstirred), aqueous buffer, pKa^FLUX method

Structure (SMILES) | Papp at 50 µM [1, 4] [nm/s] | other results
O=C1C[C@@H](c2ccc(O)cc2)Oc2cc(O)cc(O)c21 [Naringenin, naringenin] | 390 | 
COC(=O)C1=C(C)NC(C)=C(C(=O)OCCN(C)Cc2ccccc2)C1c1cccc([N+](=O)[O-])c1 (stereo not shown) [Nicardipine, nicardipine] | 12500 | 
O=C(O)c1ccc2ccccc2c1 [2-naphthoic acid] | 5950 | 
COc1ccc(CCN2CCC(Nc3nc4ccccc4n3Cc3ccc(F)cc3)CC2)cc1 [Astemizole, astemizole] | 7460 | 
CC(C)NCC(O)COc1cccc2ccccc12 (stereo not shown) [Propranolol, propranolol-HCl] |  | Papp at 50 µM [1, 5]: 410 nm/s; Papp at 50 µM ([1]; PAMPA, Pu (boundary layer permeability), stirred at 49 rpm, aqueous buffer): 3690 nm/s; Papp at 50 µM ([1]; PAMPA, Pu (boundary layer permeability), stirred at 118 rpm, aqueous buffer): 6010 nm/s; Papp at 50 µM ([1]; PAMPA, Pu (boundary layer permeability), stirred at 186 rpm, aqueous buffer): 9510 nm/s; Papp at 50 µM ([1]; PAMPA, Pu (boundary layer permeability), stirred at 622 rpm, aqueous buffer): 31100 nm/s
CCOC(=O)C1=C(COCCN)NC(C)=C(C(=O)OC)C1c1ccccc1Cl (stereo not shown) [Amlodipine, amlodipine-maleate] | 13800 | 
CNCCCC1c2ccccc2C=Cc2ccccc21 [Protriptyline, protriptyline-HCl] | 21500 | 
COc1cc2nc(N3CCN(C(=O)c4ccco4)CC3)nc(N)c2cc1OC [Prazosin, prazosin-HCl] | 380 | 
CN(C)C/C=C(/c1ccc(Br)cc1)c1cccnc1 [Zimelidine, zimelidine] | 16700 | 
CCCCN1CCN(c2cc3c(cc2F)c(=O)c(C(=O)O)cn3C2CC2)CC1C (stereo not shown) [4′N-Bu-3′-Me-ciprofloxacin] |  | Pu (boundary layer permeability) [1, 6]: 23
CC(C)Cc1ccc(C(C)C(=O)O)cc1 (stereo not shown) [Ibuprofen, ibuprofen] | 400 | 
Cc1c(OCC(F)(F)F)ccnc1C[S+]([O-])c1nc2ccccc2[nH]1 (stereo not shown) [Lansoprazole, lansoprazole] | 350 | 
C[C@@H](CO)NC(=O)[C@@H]1C=C2c3cccc4[nH]cc(c34)C[C@H]2N(C)C1 [Ergonovine, ergonovine] |  | Papp at 50 µM ([1]; PAMPA): 250 nm/s
CN1C(C(=O)Nc2ccccn2)=C(O)c2ccccc2S1(=O)=O [Piroxicam, piroxicam] | 310 | 
CCC(C)n1ncn(-c2ccc(N3CCN(c4ccc(OCC5COC(Cn6cncn6)(c6ccc(Cl)cc6Cl)O5)cc4)CC3)cc2)c1=O (stereo not shown) [Itraconazole, itraconazole] | 13600 | Pu (boundary layer permeability) ([1]; PAMPA, 50 µM): 2210
O=C(O)Cc1cccc(O)c1 [3-hydroxyphenylacetic acid] | 500 | 
O=C(O)c1ccccc1O [Salicylic acid, salicylic acid] | 370 | 
CCOC(=O)C1=C(CSCCN)NC(C)=C(C(=O)OC)C1c1cccc([N+](=O)[O-])c1 (stereo not shown) [Tiamdipine, tiamdipine] |  | Pu (boundary layer permeability) ([1]; PAMPA): 951
CCCC(=O)Nc1ccc(OCC(O)CNC(C)C)c(C(C)=O)c1 (stereo not shown) [Acebutolol, acebutolol] | 630 | 
C[C@]12CC[C@H]3[C@@H](CCC4=CC(=O)CC[C@@]43C)[C@@H]1CC[C@@H]2O [testosterone] |  | Daq [2]: 7.84e-06 cm/s; Daq [3]: 5e-06 cm/s
Clc1ccc(COC(Cn2ccnc2)c2ccc(Cl)cc2Cl)c(Cl)c1 (stereo not shown) [Miconazole, miconazole-nitrate] | 16900 | Pu (boundary layer permeability) ([1]; PAMPA, 50 µM): 1520
CC(=O)CC(c1ccccc1)c1c(O)c2ccccc2oc1=O (stereo not shown) [Warfarin, warfarin] |  | Papp at 50 µM [1, 5]: 700 nm/s
CNCCC=C1c2ccccc2CCc2ccccc21 [Nortriptyline, nortriptyline-HCl] | 600 | 
Cc1nccn1CC1CCc2c(c3ccccc3n2C)C1=O (stereo not shown) [Ondansetron, ondansetron] | 590 | Pu (boundary layer permeability) ([1]; PAMPA): 6949
CCCN1CCN(c2cc3c(cc2F)c(=O)c(C(=O)O)cn3C2CC2)CC1C (stereo not shown) [4′N-Pr-3′-Me-ciprofloxacin] |  | Pu (boundary layer permeability) [1, 6]: 40
O=C1NC(=O)C(c2ccccc2)(c2ccccc2)N1 [Phenytoin, phenytoin-Na] | 260 | 
CC(C)(C)c1ccc(C(O)CCCN2CCC(C(O)(c3ccccc3)c3ccccc3)CC2)cc1 (stereo not shown) [Terfenadine, terfenadine] | 24400 | 
CCn1cc(C(=O)O)c(=O)c2ccc(C)nc21 [Nalidixic acid, nalidixic acid] | 440 | 
CCN1CCN(c2cc3c(cc2F)c(=O)c(C(=O)O)cn3C2CC2)CC1C (stereo not shown) [4′N-Et-3′-Me-ciprofloxacin] |  | Pu (boundary layer permeability) [1, 6]: 53
